# Structures can show the parent of a compound that is named as a salt.
# Legend:
# [1] = Aqueous solubility (RP-HPLC after temperature cycling); assay type: physicochemical; details: for solubility at 25 h: thermodynamic from solid
# Description: The following information was determined in regard of aqueous solubility. […] These values represent the solubility of the crystalline compound determined via RP-HPLC analysis after subjecting the drug media mixture to a temperature cycling program (40° C. for 8 hours, 15° C. for 5 hours, and 25° C. for 12 hours).
# [2] = Hygroscopicity by dynamic vapor sorption (DVS); assay type: physicochemical
# Description: Hygroscopicity was assessed using a dynamic vapor sorption technique in which an accurately weighed sample is subjected to progressively changing water vapor pressure while simultaneously recording the weight change. The experiment is conducted isothermally at 25° C.
# FIG. 3 provides a moisture sorption isotherm of the tosylate salt of trans-N-ethyl-3-fluoro-3-[3-fluoro-4-(pyrrolidin-1-ylmethyl)phenyl]cyclobutanecarboxamide, with absorption as the (♦) curve and desorption as the (▪) curve, plotting percent change in weight as a function of relative humidity, using the kinetic flow through method (8.1 mg sample, 25° C.).
# During the initial drying cycle (25° C., 1% RH), less than 0.1% weight loss was observed, which is consistent with an anhydrous non-hygroscopic form. An approximate 0.06% increase in weight was detected by DVS analysis when a sample was exposed to relative humidities from 5% to 90% at 25° C. The desorption phase mimicked the sorption phase when the relative humidity was decreased to 5% (see FIG. 3). Additionally, the powder x-ray diffraction pattern for the sample after hygroscopicity testing matched the pattern of the sample prior to that testing.
structure (smiles),measurement,setting,value
"CCNC(=O)[C@H]1C[C@@](F)(c2ccc(CN3CCCC3)c(F)c2)C1 [tosylate salt, (trans)-3-fluoro-3-[3-fluoro-4-(pyrrolidin-1-ylmethyl)phenyl]cyclobutanecarboxylic acid ethylamide tosylate salt]",solubility at 25 h,"[1]; 25 °C, fassif, 0.1M phosphate buffered saline with 0.5 weight percent sodium tauracholate/phosphatidyl choline salts, final pH 6.5, temperature cycling",> 11 mg/mL
same,solubility at 25 h,"[1]; 25 °C, unbuffered water, final pH 3.8, temperature cycling",23.6 mg/mL
same,solubility at 25 h,"[1]; aqueous buffer, 0.1M phosphate buffered saline, final pH 6.5, crystalline compound, temperature cycling 40/15/25° C.",> 10 mg/mL
same,aqueous solubility (in words),[1]; summary statement,high aqueous solubility
same,weight loss during initial drying cycle,"[2]; 25° C., 1% RH",less than 0.1%
same,increase in weight by DVS analysis,[2]; relative humidities from 5% to 90% at 25° C.,~0.06%
same,hygroscopicity (in words),[2]; summary statement,only slightly hygroscopic
